Test results: US20180353501A1 (Arvinas, Inc., priority 2017, published 2018)

Target: T1, FLAG-p38α (Homo sapiens, UniProt Q16539)
T1 construct: expressed in transfected cells; host or cells: HeLa
Assay: Ubiquitination assay, HeLa cells co-transfected with HA-Ub and FLAG-p38α
Type: cell-based
Conditions: 500 nM, 1 hour
Protocol: FIGS. 14A, 14B, and 14C. p38α selectivity is discriminated by ternary complex formation. (A) Only p38α incubated in the presence of exemplary compound 50 can be immunoprecipitated with GST-tagged VHL/EloB/EloC (VBC). Immobilized VBC was used as a bait to trap purified p38α in the presence of vehicle (DMSO), compound 50, or compound 46 (represented in micromolar concentrations). The rightmost lane represents a 1:25 dilution of initial input protein used in each pull-down. (B) Proximity-based AlphaLISA assay detects significant p38α:compound 50:VHL ternary complex, but no p38α:compound 46:VHL ternary complex. His-p38α and GST-VBC were incubated in the presence of increasing concentrations of compound 50 and compound 46 and the extent of ternary complex formation was assessed by excitation with incident light with 1=680 nm and capture of the emission light at 1=615 nm. Error bars represent the SD from quadruplicate experiments. (C) Only exemplary compound 50 ubiquitinates FLAG-p38α in HeLa cells. […] FLAGimmunoprecipitated lysates were separated by SDS-PAGE and assessed via western blots detecting HA (Ub). […]
HeLa cells (2×10^6) were seeded into 10 cm dishes and allowed to adhere overnight. […] Lysates were spun down at 14,000×g at 4° C. for 20 minutes and protein content was measured by Pierce BCA Protein Assay (ThermoFisher Scientific). […]

T1 sequence (Q16539 whole entry): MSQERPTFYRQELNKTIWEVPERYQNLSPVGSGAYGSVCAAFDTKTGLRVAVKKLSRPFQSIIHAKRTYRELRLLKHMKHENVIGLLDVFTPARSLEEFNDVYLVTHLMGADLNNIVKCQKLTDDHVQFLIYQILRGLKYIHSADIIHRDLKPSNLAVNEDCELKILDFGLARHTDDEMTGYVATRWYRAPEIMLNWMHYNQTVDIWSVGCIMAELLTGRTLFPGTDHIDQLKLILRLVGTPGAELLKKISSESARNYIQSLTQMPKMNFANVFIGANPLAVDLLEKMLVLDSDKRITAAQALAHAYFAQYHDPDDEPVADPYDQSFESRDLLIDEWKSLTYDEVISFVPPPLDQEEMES

Structure (SMILES) | ubiquitination of FLAG-p38α
COc1cc2c(Oc3ccc(NC(=O)C4(C(=O)Nc5ccc(F)cc5)CC4)cc3F)ccnc2cc1OCCOCCOCCOc1cc(-c2scnc2C)ccc1CNC(=O)[C@@H]1C[C@@H](O)CN1C(=O)[C@H](C(C)C)N1Cc2ccccc2C1=O [compound 46] | this effect was not seen
COc1cc2c(Oc3ccc(NC(=O)C4(C(=O)Nc5ccc(F)cc5)CC4)cc3F)ccnc2cc1OCCCCOCCCCOCC(=O)N[C@H](C(=O)N1C[C@H](O)C[C@H]1C(=O)NCc1ccc(-c2scnc2C)cc1)C(C)(C)C [compound 50, N-(3-fluoro-4-((7-(4-(4-(2-(((S)-1-((2S,4R)-4-hydroxy-2-((4-(4-methylthiazol-5-yl)benzyl)carbamoyl)pyrrolidin-1-yl)-3,3-dimethyl-1-oxobutan-2-yl)amino)-2-oxoethoxy)butoxy)buto-xy)-6-methoxyquinolin-4-yl)oxy)phenyl)-N-(4-fluorophenyl)cyclopropane-1,1-dicarboxa-mide] | substantial ubiquitination
